From US20230277483A1, “COMPOSITIONS AND METHODS TO TREAT INFLAMMATION” (University of Iowa Research Foundation, priority 2022, published 2023)

Tested on: Td (ATCC 35405)
Experiment: Bacterial proliferation measured by OD600
Format: cell-based, Treponema denticola
Settings: HCA at 0.1 μM; anaerobic culture
Procedure: Sg metabolites promote commensal bacterial proliferation and inhibit periodontopathogenic bacterial proliferation and colonization. Commensal bacteria, Sg, S. sanguinis (Ss, ATCC10556), S. mitis (Sm, ATCC49456) and S. oralis (So, ATCC 35037) were cultured in BHI medium. In addition, pathogenic bacteria, Pg was cultured using BHI and Tf (ATCC43037), and Td (ATCC 35405) were grown in Thioglycollate medium with vitamin K and Hemin in 90% N2, 5% H2, 5% CO2. The Sg metabolites were diluted using DMEM and added to the bacteria with the similar OD600 value. The same amount of DMEM was used as a control. During the exponential growth of bacteria, the OD600 value was measured to determine the proliferation. […] In addition, to determine the function of Sg metabolites on Pg colonization, Pg were inoculated in 24-well plates containing BHI or BHI supplemented with DMEM or Sg metabolites. […]
HCA promotes proliferation of health related bacteria and inhibits proliferation and attachment of periodontopathogenic bacteria. […] The composition of the microbiomes was determined by amplifying the V3 and V4 regions of the 16S rRNA genes. Raw data in FASTQ format were filtered and denoised using DADA2 (Divisive Amplicon Denoising Algorithm) to generate amplicon sequence variants (ASV) or operational taxonomical units (OTUs) that were then analyzed by QIIME2.

Structure (SMILES): O=C(O)CCCCCO [HCA, 6-hydroxycaproic acid]
- proliferation of T. denticola: significantly inhibits
